Results from patent US20050130134A1, “Means and methods for monitoring non-nucleoside reverse transcriptase inhibitor antiretroviral therapy and guiding therapeutic decisions in the treatment HIV-AIDS” (ViroLogic, Inc., priority 2000, published 2005).
“Also recorded” adds a separate entry of the source.

Key:
[1] = test system: HIV-1 reverse transcriptase Y181I (Y181I-RTV); test: Phenotypic susceptibility assay, site directed mutant Y181I-RTV; assay type: cell-based; settings: >1 loss of susceptibility
Description: (§1) Resistance tests were carried out with resistance test vectors using two host cell types. Resistance test vector viral particles were produced by a first host cell (the resistance test vector host cell) that was prepared by transfecting a packaging host cell with the resistance test vector and the packaging expression vector. The resistance test vector viral particles were then used to infect a second host cell (the target host cell) in which the expression of the indicator gene is measured.
(§2) The resistance test vectors containing a functional luciferase gene cassette were constructed and host cells were transfected with the resistance test vector DNA. The resistant test vectors contained patient-derived reverse transcriptase and protease sequences that were either susceptible or resistant to the antiretroviral agents, such as nucleoside reverse transcriptase inhibitors, non-nucleoside reverse transcriptase inhibitors and protease inhibitors. The resistance test vector viral particles produced by transfecting the resistance test vector DNA into host cells, either in the presence or absence of protease inhibitors, were used to infect target host cells grown either in the absence of NRTI or NNRTI or in the presence of increasing concentrations of the drug. […] The IC50 values were determined by plotting percent drug inhibition vs. log10 drug concentration.
(§3) Host cells were seeded in 10-cm-diameter dishes and were transfected several days after plating with resistance test vector plasmid DNA and the envelope expression vector. […] HIV capsid protein (p24) levels in the harvested cell culture media were determined by an EIA method as described by the manufacturer (SIAC; Frederick, Md.). […] The inhibitory effect of the drug was determined using the following equation: % luciferase inhibition=1-(RLUluc[drug]÷RLUluc)×100 where RLUluc [drug] is the relative light unit of luciferase activity in infected cells in the presence of drug and RLUluc is the Relative Light Unit of luciferase activity in infected cells in the absence of drug. […]

[2] = test system: HIV-1 reverse transcriptase Y181C + F227L (Y181C-F227L-RTV); test: Phenotypic susceptibility assay, site directed mutant Y181C-F227L-RTV; assay type: cell-based; settings: >1 loss, <1 increased susceptibility
Description: as §1, §2, §3

[3] = test system: HIV-1 reverse transcriptase Y181C + A98G (Y181C-A98G-RTV); test: Phenotypic susceptibility assay, site directed mutant Y181C-A98G-RTV; assay type: cell-based; settings: >1 loss of susceptibility
Description: as §1, §2, §3

[4] = test system: HIV-1 reverse transcriptase K101E (K101E-RTV); test: Phenotypic susceptibility assay, site directed mutant K101E-RTV; assay type: cell-based
Description: as §1
(§4) The resistance test vectors containing a functional luciferase gene cassette were constructed and host cells were transfected with the resistance test vector DNA. The resistant test vectors contained patient-derived reverse transcriptase and protease sequences that were either susceptible or resistant to the antiretroviral agents, such as nucleoside reverse transcriptase inhibitors, non-nucleoside reverse transcriptase inhibitors and protease inhibitors. The resistance test vector viral particles produced by transfecting the resistance test vector DNA into host cells, either in the presence or absence of protease inhibitors, were used to infect target host cells grown either in the absence of NRTI or NNRTI or in the presence of increasing concentrations of the drug. The amount of luciferase activity produced in infected target host cells in the presence of drug was compared to the amount of luciferase produced in infected target host cells in the absence of drug. Drug resistance was measured as the amount of drug required to inhibit by 50% the luciferase activity detected in the absence of drug (inhibitory concentration 50%, IC50). The IC50 values were determined by plotting percent drug inhibition vs. log10 drug concentration.
(§5) Host cells were seeded in 10-cm-diameter dishes and were transfected several days after plating with resistance test vector plasmid DNA and the envelope expression vector. Transfections were performed using a calcium-phosphate precipitation procedure. The cell culture media containing the DNA precipitate was replaced with fresh medium, from one to 24 hours, after transfection. Cell culture media containing resistance test vector viral particles was harvested one to four days after transfection and was passed through a […] filter before being stored at −80° C. HIV capsid protein (p24) levels in the harvested cell culture media were determined by an EIA method as described by the manufacturer (SIAC; Frederick, Md.). Before infection, target cells (293 and 293/T) were plated in cell culture media. Control infections were performed using cell culture media from mock transfections (no DNA) or transfections containing the resistance test vector plasmid DNA without the envelope expression plasmid. One to three or more days after infection the media was removed and cell lysis buffer (Promega) was added to each well. […] The inhibitory effect of the drug was determined using the following equation: % luciferase inhibition=1-(RLUluc[drug]÷RLUluc)×100 where RLUluc [drug] is the relative light unit of luciferase activity in infected cells in the presence of drug and RLUluc is the Relative Light Unit of luciferase activity in infected cells in the absence of drug. IC50 values were obtained from the sigmoidal curves that were generated from the data by plotting the percent inhibition of luciferase activity vs. the log10 drug concentration. […]

[5] = test system: HIV-1 reverse transcriptase K103N (K103N-RTV); test: Phenotypic susceptibility assay, site directed mutant K103N-RTV; assay type: cell-based; settings: for change in susceptibility / resistance: K103N mutation; for fold change in susceptibility compared to wild type control RTV: K103N-RTV, >1 loss of susceptibility
Description: as §1, §4, §5

[6] = test system: HIV-1 reverse transcriptase E138A + Y188L (E138A-Y188L-RTV); test: Phenotypic susceptibility assay, site directed mutant E138A-Y188L-RTV; assay type: cell-based; settings: >1 loss of susceptibility
Description: as §1, §2, §3

[7] = test system: HIV-1 reverse transcriptase K101E + G190S (K101E-G190S-RTV); test: Phenotypic susceptibility assay, site directed mutant K101E-G190S-RTV; assay type: cell-based
Description: as §1, §4
Host cells were seeded in 10-cm-diameter dishes and were transfected several days after plating with resistance test vector plasmid DNA and the envelope expression vector. Transfections were performed using a calcium-phosphate precipitation procedure. The cell culture media containing the DNA precipitate was replaced with fresh medium, from one to 24 hours, after transfection. Cell culture media containing resistance test vector viral particles was harvested one to four days after transfection and was passed through a […] filter before being stored at −80° C. HIV capsid protein (p24) levels in the harvested cell culture media were determined by an EIA method as described by the manufacturer (SIAC; Frederick, Md.). Before infection, target cells (293 and 293/T) were plated in cell culture media. Control infections were performed using cell culture media from mock transfections (no DNA) or transfections containing the resistance test vector plasmid DNA without the envelope expression plasmid. One to three or more days after infection the media was removed and cell lysis buffer (Promega) was added to each well. […] The inhibitory effect of the drug was determined using the following equation: % luciferase inhibition=1-(RLUluc[drug]÷RLUluc)×100 where RLUluc [drug] is the relative light unit of luciferase activity in infected cells in the presence of drug and RLUluc is the Relative Light Unit of luciferase activity in infected cells in the absence of drug. IC50 values were obtained from the sigmoidal curves that were generated from the data by plotting the percent inhibition of luciferase activity vs. the log10 drug concentration.
Mutations may be incorporated alone and/or in combination with other known drug resistance mutations that are thought to modulate the susceptibility of HIV to a certain drug or class of drugs. Mutations are introduced into the resistance test vector through any of the widely known methods for site-directed mutagenesis. In one embodiment of this invention the mega-primer PCR method for site-directed mutagenesis is used.

[8] = test system: T66I integrase site-directed mutant; test: Phenotypic susceptibility assay, integrase T66I mutated resistance test vector; assay type: cell-based, HIV; settings: {}
Description: (§6) Transfections were performed using a calcium-phosphate precipitation procedure. […] Cell lysates were assayed for luciferase activity (FIG. 3). […] The drug inhibition curves are shown in (FIG. 3).
A resistance test vector containing the threonine to isoleucine mutation at position 66 of the integrase protein (T66I) was constructed and tested using the phenotypic assay described earlier.

[9] = test system: HIV-1 reverse transcriptase V106A + Y181C (V106A-Y181C-RTV); test: Phenotypic susceptibility assay, site directed mutant V106A-Y181C-RTV; assay type: cell-based; settings: >1 loss of susceptibility
Description: as §1, §2, §3

[10] = test system: HIV-1 reverse transcriptase G190S (G190S-RTV); test: Phenotypic susceptibility assay, site directed mutant G190S-RTV; assay type: cell-based; settings: for change in susceptibility: G190S-RTV versus wild type reference RTV; for fold change in susceptibility compared to wild type control RTV: G190S-RTV, >1 loss, <1 increased susceptibility
Description: as §1, §4, §5

[11] = test system: HIV-1 reverse transcriptase V106A + V189L (V106A-V189L-RTV); test: Phenotypic susceptibility assay, site directed mutant V106A-V189L-RTV; assay type: cell-based; settings: >1 loss of susceptibility
Description: as §1, §2, §3

[12] = test system: HIV-1 reverse transcriptase A98G + G190S (A98G-G190S-RTV); test: Phenotypic susceptibility assay, site directed mutant A98G-G190S-RTV; assay type: cell-based; settings: >1 loss, <1 increased susceptibility
Description: as §1, §2, §3

[13] = test system: HIV-1 reverse transcriptase K101E + G190A (K101E-G190A-RTV); test: Phenotypic susceptibility assay, site directed mutant K101E-G190A-RTV; assay type: cell-based; settings: >1 loss of susceptibility
Description: as §1, §2, §3

[14] = test system: HIV-1 reverse transcriptase P236L (P236L-RTV); test: Phenotypic susceptibility assay, site directed mutant P236L-RTV; assay type: cell-based; settings: P236L alone versus wild type reference RTV
Description: as §6
Resistance test vectors were constructed containing the P236L mutation alone and in combination with other known drug resistance mutations (K103N, Y181C) that are known to modulate the susceptibility of HIV-1 to NNRTIs. […] The P236L mutation was also introduced into a RTV containing mutations at K103N, Y181C or both (K103N+Y181C).

[15] = test system: RTV-1060 patient virus (RT K101E, G190S); test: Phenotypic susceptibility assay, RTV-1060 (patient 98-1060); assay type: cell-based, HIV-1; settings: >1 decreased susceptibility
Description: as §1
The resistance test vectors containing a functional luciferase gene cassette were constructed and host cells were transfected with the resistance test vector DNA. The resistant test vectors contained patient-derived reverse transcriptase and protease sequences that were either susceptible or resistant to the antiretroviral agents, such as nucleoside reverse transcriptase inhibitors, non-nucleoside reverse transcriptase inhibitors and protease inhibitors. […] The IC50 values were determined by plotting percent drug inhibition vs. log10 drug concentration.
as §3
An IC50 was determined for the resistance test vector pool for each drug tested.

[16] = test system: HIV-1 reverse transcriptase L100I (L100I-RTV); test: Phenotypic susceptibility assay, site directed mutant L100I-RTV; assay type: cell-based; settings: >1 loss of susceptibility
Description: as §1, §2, §3

[17] = test system: HIV-1 reverse transcriptase F227L (F227L-RTV); test: Phenotypic susceptibility assay, site directed mutant F227L-RTV; assay type: cell-based; settings: >1 loss, <1 increased susceptibility
Description: as §1, §2, §3

[18] = K101E-RTV, >1 loss of susceptibility
[19] = >1 loss, <1 increased susceptibility
[20] = second pair of values printed in the K101E-RTV sentence of b280

Row | Structure (SMILES) | fold change in susceptibility compared to wild type control RTV [1] | fold change in susceptibility compared to wild type control RTV [2] | fold change in susceptibility compared to wild type control RTV [3] | fold change in susceptibility compared to wild type control RTV [4, 18] | change in susceptibility / resistance [5] | fold change in susceptibility compared to wild type control RTV [5] | fold change in susceptibility compared to wild type control RTV [6] | fold change in susceptibility compared to wild type control RTV ([7]; >1 loss of susceptibility) | fold change in susceptibility compared to wild type control RTV [7, 19] | increase in susceptibility compared to wild type control RTV [8] | fold change in susceptibility compared to wild type control RTV [9] | change in susceptibility [10] | fold change in susceptibility compared to wild type control RTV [10] | fold change in susceptibility compared to wild type control RTV [11] | fold change in susceptibility compared to wild type control RTV [12] | fold change in susceptibility compared to wild type control RTV [13] | change in susceptibility [14] | fold change in susceptibility [15] | fold change in susceptibility compared to wild type control RTV [16] | fold change in susceptibility compared to wild type control RTV [17] | other results
1 | CC(C)Nc1cccnc1N1CCN(C(=O)c2cc3cc(NS(C)(=O)=O)ccc3[nH]2)CC1 [delavirdine] | 20 fold | 0.89 fold | 240 fold | 5 fold | reduced susceptibility; also recorded: resistance | 50 fold | 75 fold | 1.4 fold | 0.5 fold | 8 to 10 fold | 100 fold | slightly more susceptible; also recorded: increase; also recorded: slightly increase susceptibility | 0.5 fold | 3 fold | 0.8 fold | 2 fold | less susceptible; also recorded: significant reduction | 1.5 fold | 30 fold | 0.03 fold | 
2 | O=C1Nc2ccc(Cl)cc2[C@@](C#CC2CC2)(C(F)(F)F)O1 [efavirenz] | 1.4 fold | 0.99 fold | 7 fold | 5 fold |  | 30 fold | 88 fold | greater than 250 fold | 7.6 fold | 8 to 10 fold | 4 fold |  | 8 fold | 1 fold | greater than 250 fold | 120 fold | no effect | 900 fold | 10 fold | 0.48 fold | fold change in susceptibility compared to wild type control RTV [4, 20]: 30 fold
3 | Cc1ccnc2c1NC(=O)c1cccnc1N2C1CC1 [nevirapine] | 740 fold | 285 fold | greater than 800 fold | 12 fold | reduced susceptibility; also recorded: resistance | 55 fold | greater than 800 fold | greater than 800 fold | 75 fold | 8 to 10 fold | greater than 800 fold | markedly less susceptible; also recorded: decrease; also recorded: greatly reduce susceptibility | 75 fold | 50 fold | greater than 800 fold | greater than 800 fold | no significant change; also recorded: little or no reduction | greater than 800 fold | 3 fold | 3 fold | fold change in susceptibility compared to wild type control RTV [4, 20]: 55 fold
